US20090197856A1, “ANTIVIRAL COMPOUNDS” (Genelabs Technologies, Inc., priority 2007, published 2009)

target: T1, HCV-NS5b (Hepatitis C virus genotype 1b, UniProt Q9WMX2); experiment: HCV-NS5b enzyme assay using homopolymer substrate; assay type: biochemical; details: not given
T1 construct: (His)6 (C); made in house; host or cells: XL-1 cells (E. coli), IPTG-inducible plasmid
Text: The coding sequence of NS5b protein was cloned by PCR from pFKI389luc/NS3-3′/ET as described by Lohmann, V., et al. (1999) Science 285, 110-113 using the primers shown on page 266 of WO 2005/012288
The cloned fragment is missing the C terminus 21 amino acid residues. The cloned fragment was inserted into an IPTG-inducible (isopropyl-β-D-thiogalactopyranoside) expression plasmid that provides an epitope tag (His)6 at the carboxy terminus of the protein.
The recombinant enzyme was expressed in XL-1 cells and after induction of expression, the protein was purified using affinity chromatography on a nickel-NTA (nitrilotriacetic acid) column. Storage condition was 10 mM Tris-HCl pH 7.5, 50 mM NaCl, 0.1 mM EDTA (ethylenediaminetetraacetic acid), 1 mM DTT (dithiothreotol), 20% glycerol at −20° C.
The polymerase activity was assayed by measuring incorporation of radiolabeled UTP into a RNA product using a biotinylated, homopolymeric template. The template was formed by annealing adenosine homopolymer to uridine 20-mer capped with a 5′-biotin group (biotin-U^20) in the ratio of 1:4. Typically, the assay mixture (50 μL) contained 25 mM Tris-HCl (pH 7.5), 40 mM KCl, 0.3 mM MgCl2, 0.05 mM EDTA, 0.2 unit/μL Superase RNAse Inhibitor, 5 mM DTT, 30 μM UTP (Uridine triphosphate), including [^3H]-UTP (uridine triphosphate) at 0.4 μCi/μL with final concentration of 1 μM, and 50 nM of homopolymeric template. Test compounds were initially dissolved in 100% DMSO and further diluted in aqueous buffer containing 5% DMSO. Typically, compounds were tested at concentrations between 2 nM and 50 μM. Reactions were started with addition of enzyme and allowed to continue at 30° C. for 90 minutes. Reactions were quenched with 8 μL of 100 mM EDTA and reaction mixtures (30 μL) were transferred to streptavidin-coated scintillation proximity microtiter plates (FlashPlates) and incubated at room temperature overnight. Incorporation of radioactivity was determined by scintillation counting.
Inhibitor IC50 values were determined by adding test compound as ten point, two-fold serial dilutions in 100% DMSO with a final reaction concentration of 5%. IC50 was calculated by plotting the % inhibition against compound concentration and fitting the data to a constrained four parameter sigmoidal curve, equivalent to the “four parameter logistic equation”:
Where Bottom is the minimum Y value, Top is the maximum Y value, and Hillslope is the slope of the linear portion of the semi-log curve. Top and Bottom were constrained to values of 0% and 100%, respectively. These analyses were performed using Graphpad Prism v.4.0 (Graphpad Software, Inc.) in conjunction with DS Accord for EXCEL 6.0 (Accelrys, Microsoft Corp.).
The table below lists the IC50 values of compounds determined using the homopolymer substrates.

SMILES	IC50
O=C(O)c1ccc2c(C3CCCCC3)c3n(c2c1)CCCn1cc(C2=CCNCC2)c2cccc-3c21 [Compound 397]	218 nM
CC(=O)c1cn2c3c(cccc13)-c1c(C3CCCCC3)c3ccc(C(=O)O)cc3n1CCC2 [Compound 402]	168 nM
CCN(CC)CCC(=O)c1cn2c3c(cccc13)-c1c(C3CCCCC3)c3ccc(C(=O)O)cc3n1CCC2 [Compound 429]	99 nM
CC(C)NCCC(=O)c1cn2c3c(cccc13)-c1c(C3CCCCC3)c3ccc(C(=O)O)cc3n1CCC2 [Compound 430]	73 nM

same assay, conditions: homopolymer substrate, [3H]-UTP incorporation, 30° C., 90 minutes; read-out: IC50

IC50	SMILES
158 nM	CC(C)CNCc1cn2c3c(cccc13)-c1c(C3CCCCC3)c3ccc(C(=O)O)cc3n1CCC2 [Compound 367]
303 nM	CN(C)CCNCc1cn2c3c(cccc13)-c1c(C3CCCCC3)c3ccc(C(=O)O)cc3n1CCC2 [Compound 368]
171 nM	CN(C)C(=O)CNCc1cn2c3c(cccc13)-c1c(C3CCCCC3)c3ccc(C(=O)O)cc3n1CCC2 [Compound 369]
94 nM	O=C(O)c1ccc2c(C3CCCCC3)c3n(c2c1)CCCn1cc(CNC2CCCOC2)c2cccc-3c21 (stereo not shown) [Compound 370]
109 nM	O=C(O)c1ccc2c(C3CCCCC3)c3n(c2c1)CCCn1cc(CNC2CCCC2)c2cccc-3c21 [Compound 371]
106 nM	CNCc1cn2c3c(cccc13)-c1c(C3CCCCC3)c3ccc(C(=O)O)cc3n1CCC2 [Compound 372]
153 nM	CS(=O)(=O)NC(=O)c1ccc2c(C3CCCCC3)c3n(c2c1)CCCn1cc(CN2CCCCC2)c2cccc-3c21 [Compound 373]
365 nM	O=C(NC1CC1)c1ccc2c(C3CCCCC3)c3n(c2c1)CCCn1cc(CN2CCCCC2)c2cccc-3c21 [Compound 374]
177 nM	CN(C)S(=O)(=O)NC(=O)c1ccc2c(C3CCCCC3)c3n(c2c1)CCCn1cc(CN2CCCCC2)c2cccc-3c21 [Compound 375]
641 nM	CCN(C)Cc1cn2c3c(cccc13)-c1c(C3CCCCC3)c3ccc(C(=O)OC)cc3n1CCC2 [Compound 376]
199 nM	O=C(O)c1ccc2c(C3CCCCC3)c3n(c2c1)CCCn1cc(CNC2CCCCC2)c2cccc-3c21 [Compound 378]
117 nM	CCC(C)NCc1cn2c3c(cccc13)-c1c(C3CCCCC3)c3ccc(C(=O)O)cc3n1CCC2 (stereo not shown) [Compound 379]
93 nM	O=C(O)CNCc1cn2c3c(cccc13)-c1c(C3CCCCC3)c3ccc(C(=O)O)cc3n1CCC2 [Compound 380]
117 nM	COCCNCc1cn2c3c(cccc13)-c1c(C3CCCCC3)c3ccc(C(=O)O)cc3n1CCC2 [Compound 381]
141 nM	CC1CCC(C)N1Cc1cn2c3c(cccc13)-c1c(C3CCCCC3)c3ccc(C(=O)O)cc3n1CCC2 (stereo not shown) [Compound 382]
85 nM	O=C(O)c1ccc2c(C3CCCCC3)c3n(c2c1)CCCn1cc(CNC2CCC2)c2cccc-3c21 [Compound 383]
65 nM	O=C(O)c1ccc2c(C3CCCCC3)c3n(c2c1)CCCn1cc(CN[C@H]2CC[C@H](O)CC2)c2cccc-3c21 [Compound 384]
133 nM	O=C(O)c1ccc2c(C3CCCCC3)c3n(c2c1)CCCn1cc(CN2CCC(O)CC2)c2cccc-3c21 [Compound 385]
196 nM	O=C(O)c1ccc2c(C3CCCCC3)c3n(c2c1)CCCn1cc(CNCc2cccnc2)c2cccc-3c21 [Compound 386]
180 nM	CON(C)Cc1cn2c3c(cccc13)-c1c(C3CCCCC3)c3ccc(C(=O)O)cc3n1CCC2 [Compound 387]
159 nM	O=C(O)c1ccc2c(C3CCCCC3)c3n(c2c1)CCCn1cc(CNCCO)c2cccc-3c21 [Compound 388]
237 nM	O=C(O)c1ccc2c(C3CCCCC3)c3n(c2c1)CCCn1cc(CN2CCC(O)C2)c2cccc-3c21 (stereo not shown) [Compound 390]
211 nM	CS(=O)(=O)CCNCc1cn2c3c(cccc13)-c1c(C3CCCCC3)c3ccc(C(=O)O)cc3n1CCC2 [Compound 391]
105 nM	C[C@@H]1CC[C@@H](C)N1Cc1cn2c3c(cccc13)-c1c(C3CCCCC3)c3ccc(C(=O)O)cc3n1CCC2 [Compound 392]
138 nM	CCC(C)(C)NCc1cn2c3c(cccc13)-c1c(C3CCCCC3)c3ccc(C(=O)O)cc3n1CCC2 [Compound 393]
159 nM	O=C(O)c1ccc2c(C3CCCCC3)c3n(c2c1)CCCn1cc(CN2CCS(=O)(=O)CC2)c2cccc-3c21 [Compound 394]
140 nM	NCc1cn2c3c(cccc13)-c1c(C3CCCCC3)c3ccc(C(=O)O)cc3n1CCC2 [Compound 395]

IC50	SMILES
126 nM	CC1Cn2cc(CN3CCCCC3)c3cccc(c32)-c2c(C3CCCCC3)c3ccc(C(=O)O)cc3n2C1 (stereo not shown) [Compound 396]
204 nM	O=C(O)c1ccc2c(C3CCCCC3)c3n(c2c1)CCCn1cc(C2CCNCC2)c2cccc-3c21 [Compound 398]
220 nM	CN1CCC(c2cn3c4c(cccc24)-c2c(C4CCCCC4)c4ccc(C(=O)O)cc4n2CCC3)CC1 [Compound 399]
250 nM	CC(C)N1CCC(c2cn3c4c(cccc24)-c2c(C4CCCCC4)c4ccc(C(=O)O)cc4n2CCC3)CC1 [Compound 400]
140 nM	O=C(O)c1ccc2c(C3CCCCC3)c3n(c2c1)CCCn1cc(C2CCN(CCO)CC2)c2cccc-3c21 [Compound 401]
207 nM	CCC1CN2CCCn3c(c(C4CCCCC4)c4ccc(C(=O)O)cc43)-c3cccc1c32 (stereo not shown) [Compound 403]
257 nM	O=C(O)c1ccc2c(C3CCCCC3)c3n(c2c1)CCCn1c(C(=O)NCCN2CCCCC2)cc2cccc-3c21 [Compound 404]
139 nM	CN(C)C(=O)c1cc2cccc3c2n1CCCn1c-3c(C2CCCCC2)c2ccc(C(=O)O)cc21 [Compound 405]
136 nM	O=C(O)c1ccc2c(C3CCCCC3)c3n(c2c1)CCCn1c(C(=O)N2CCCCC2)cc2cccc-3c21 [Compound 406]
253 nM	O=C(O)c1ccc2c(C3CCCCC3)c3n(c2c1)CCCn1c(C(=O)O)cc2cccc-3c21 [Compound 407]
142 nM	CCN(CC)C1CCN(C(=O)c2cc3cccc4c3n2CCCn2c-4c(C3CCCCC3)c3ccc(C(=O)O)cc32)CC1 [Compound 408]
114 nM	CN1CCN(C(=O)c2cc3cccc4c3n2CCCn2c-4c(C3CCCCC3)c3ccc(C(=O)O)cc32)CC1 [Compound 409]
384 nM	CCN(C)Cc1c(C(=O)N(C)C)n2c3c(cccc13)-c1c(C3CCCCC3)c3ccc(C(=O)O)cc3n1CCC2 [Compound 410]
277 nM	CN(C)Cc1cc2cccc3c2n1CCCn1c-3c(C2CCCCC2)c2ccc(C(=O)O)cc21 [Compound 411]
179 nM	CN1CCN(C(=O)c2c(Cl)c3cccc4c3n2CCCn2c-4c(C3CCCCC3)c3ccc(C(=O)O)cc32)CC1 [Compound 412]
105 nM	NC(=O)c1cc2cccc3c2n1CCCn1c-3c(C2CCCCC2)c2ccc(C(=O)O)cc21 [Compound 413]
98 nM	O=C(O)c1ccc2c(C3CCCCC3)c3n(c2c1)CCCn1c(CN2CCCCC2)cc2cccc-3c21 [Compound 414]
170 nM	CN1CCN(Cc2cc3cccc4c3n2CCCn2c-4c(C3CCCCC3)c3ccc(C(=O)O)cc32)CC1 [Compound 415]
146 nM	O=C(O)c1ccc2c(C3CCCCC3)c3n(c2c1)CCCn1c2c-3cccc2c2c(=O)[nH][nH]c(=O)c21 [Compound 416]
99 nM	CNC(=O)c1cc2cccc3c2n1CCCn1c-3c(C2CCCCC2)c2ccc(C(=O)O)cc21 [Compound 417]
144 nM	NCc1cc2cccc3c2n1CCCn1c-3c(C2CCCCC2)c2ccc(C(=O)O)cc21 [Compound 418]
180 nM	CC(C)N1Cc2c(n3c4c(cccc24)-c2c(C4CCCCC4)c4ccc(C(=O)O)cc4n2CCC3)C1=O [Compound 419]
472 nM	O=C(O)c1ccc2c(C3CCCCC3)c3n(c2c1)CCCn1c2c(c4cccc-3c41)CN(C1CCCCC1)C2=O [Compound 421]
121 nM	O=C(O)c1ccc2c(C3CCCCC3)c3n(c2c1)CC1(CC1)Cn1cc(CN2CCCCC2)c2cccc-3c21 [Compound 427]
166 nM	CCN(C)Cc1cn2c3c(cccc13)-c1c(C3CCCCC3)c3ccc(C(=O)O)cc3n1CC1(CC1)C2 [Compound 428]
201 nM	O=C(O)c1ccc2c(C3CCCCC3)c3n(c2c1)CCCn1cc(/C(Cl)=C/CN2CCCCC2)c2cccc-3c21 [Compound 431]
324 nM	CCN(CC)CC#Cc1cn2c3c(cccc13)-c1c(C3CCCCC3)c3ccc(C(=O)O)cc3n1CCC2 [Compound 432]
